This passage reports EC50, CC50 and melting point results from patent publication US10765662B2, “Mono- or di-substituted indole derivatives as dengue viral replication inhibitors” (Janssen Pharmaceuticals, Inc., priority 2015, dated 2020).

The test system of series [1] is DENV-2 16681 strain labeled with enhanced green fluorescent protein. Kind of series: DENV-2 antiviral assay (eGFP fluorescence read-out in Vero cells). It counts as cell-based, Dengue virus. Conditions: DENV-2 16681 eGFP, MOI 0.5, 3 days. Here is the method: The antiviral activity of all the compounds of the invention was tested against the DENV-2 16681 strain which was labeled with enhanced green fluorescent protein (eGPF). The culture medium consists of minimal essential medium supplemented with 2% of heat-inactivated fetal calf serum, 0.04% gentamycin (50 mg/mL) and 2 mM of L-glutamine. Vero cells, obtained from ECACC, were suspended in culture medium and 25 μL was added to 384-well plates (2500 cells/well), which already contain the antiviral compounds. Typically, these plates contain a 5-fold serial dilution of 9 dilution steps of the test compound at 200 times the final concentration in 100% DMSO (200 nL). […] Finally, each plate contains wells which are assigned as virus controls (containing cells and virus in the absence of compound), cell controls (containing cells in the absence of virus and compound) and medium controls (containing medium in the absence of cells, virus and compounds). To the wells assigned as medium control, 25 μL of culture medium was added instead of Vero cells. Once the cells were added to the plates, the plates were incubated for 30 minutes at room temperature to allow the cells to distribute evenly within the wells. Next, the plates were incubated in a fully humidified incubator (37° C., 5% CO2) until the next day. Then, DENV-2 strain 16681, labeled with eGFP, was added at a multiplicity of infection (MOI) of 0.5. Therefore, 15 μL of virus suspension was added to all the wells containing test compound and to the wells assigned as virus control. In parallel, 15 μL of culture medium was added to the medium and cell controls. Next, the plates were incubated for 3 days in a fully humidified incubator (37° C., 5% CO2). At the day of the read out, the eGFP fluorescence was measured using an automated fluorescence microscope at 488 nm (blue laser). Using an in-house LIMS system, inhibition dose response curves for each compound were calculated and the half maximal effective concentration (EC50) was determined. Therefore, the percent inhibition (I) for every test concentration is calculated using the following formula: I=100*([…])/(SVC−SCC); ST, SCC and SVC are the amount of eGFP signal in the test compound, cell control and virus control wells, respectively. The EC50 represents the concentration of a compound at which the virus replication is inhibited with 50%, as measured by a 50% reduction of the eGFP fluorescent intensity compared to the virus control. The EC50 is calculated using linear interpolation (Table 1).

A further series relates to Vero cells. Put plainly: in vitro. The class given is cell-based. Conditions: African green monkey. Here is the method: (§1) In parallel, the toxicity of the compounds was assessed on the same plates. Once the read-out for the eGFP signal was done, 40 μL of ATPlite, a cell viability stain, was added to all wells of the 384-well plates. ATP is present in all metabolically active cells and the concentration declines very rapidly when the cells undergo necrosis or apoptosis. The ATPLite assay system is based on the production of light caused by the reaction of ATP with added luciferase and D-luciferin. The plates were incubated for 10 minutes at room temperature. Next, the plates were measured on a ViewLux. The half maximal cytotoxic concentration (CC50) was also determined, defined as the concentration required to reduce the luminescent signal by 50% compared to that of the cell control wells. Finally, the selectivity index (SI) was determined for the compounds, which was calculated as followed: SI=CC50/EC50.

In the next series the test system is DENV-1 strain TC974#666. Put plainly: Tetravalent RT-qPCR assay Protocol A, serotype 1. The class given is cell-based. Conditions: Dengue virus, DENV1, 72 h; RT-qPCR serotype 1 TC974#666, Vero cells, day 3. Here is the method: (§2) The antiviral activity of the compounds of the invention was tested against DENV-1 strain TC974#666 (NCPV), DENV-2 strain 16681, DENV-3 strain H87 (NCPV) and DENV-4 strains H241 (NCPV) and EDEN (SG/06K2270DK1/2005; GenBank accession number QG398256) in a RT-qPCR assay. Therefore, Vero cells were infected with either DENV-1, or -2, or -3, or -4 in the presence or absence of test compounds. At day 3 post-infection, the cells were lysed and cell lysates were used to prepare cDNA of both a viral target (the 3′UTR of DENV; Table 2) and a cellular reference gene (β-actin, Table 2). Subsequently, a duplex real time PCR was performed on a Lightcycler480 instrument. The generated Cp value is inversely proportional to the amount of RNA expression of these targets. Inhibition of DENV replication by a test compound results in a shift of Cp's for the 3′UTR gene. On the other hand, if a test compound is toxic to the cells, a similar effect on β-actin expression will be observed. The comparative ΔΔCp method is used to calculate EC50, which is based on the relative gene expression of the target gene (3′UTR) normalized with the cellular housekeeping gene (β-actin). In addition, CC50 values are determined based on the Cp values acquired for the housekeeping gene β-actin.
(§3) The culture medium consisted of minimal essential medium supplemented with 2% of heat-inactivated fetal calf serum, 0.04% gentamycin (50 mg/mL) and 2 mM of L-glutamine. Vero cells, obtained from ECACC, were suspended in culture medium and 75 μL/well was added in 96-well plates (10000 cells/well), which already contain the antiviral compounds. […] In addition, each plate contains wells which are assigned as virus controls (containing cells and virus in the absence of compound) and cell controls (containing cells in the absence of virus and compound). Once the cells were added in the plates, the plates were incubated in a fully humidified incubator (37° C., 5% CO2) until the next day. Dengue viruses serotype-1, 2, 3 and 4 were diluted in order to obtain a Cp of ˜22-24 in the assay. Therefore, 25 μL of virus suspension, was added to all the wells containing test compound and to the wells assigned as virus control. In parallel, 25 μL of culture medium was added to the cell controls. Next, the plates were incubated for 3 days in a fully humidified incubator (37° C., 5% CO2). After 3 days, the supernatant was removed from the wells and the cells were washed twice with ice-cold PBS (˜100 μL). The cell pellets within the 96-well plates were stored at −80° C. for at least 1 day. Next, RNA was extracted using the Cells-to-CT™ lysis kit, according to the manufacturer's guideline (Life Technologies). The cell lysates can be stored at −80° C. or immediately used in the reverse transcription step.
(§4) In preparation of the reverse transcription step, mix A (table 3A) was prepared and 7.57 μL/well was dispensed in a 96-well plate. After addition of 5 μL of the cell lysates, a five minute denaturation step at 75° C. was performed (table 3B). Afterwards, 7.43 μL of mix B was added (table 3C) and the reverse transcription step was initiated (table 3D) to generate cDNA.
(§5) Finally, a RT-qPCR mix was prepared, mix C (table 4A), and 22.02 μL/well was dispensed in 96-well LightCycler qPCR plates to which 3 μL of cDNA was added and the qPCR was performed according to the conditions in table 4B on a LightCycler 480.
(§6) Using the LightCycler software and an in-house LIMS system, dose response curves for each compound were calculated and the half maximal effective concentration (EC50) and the half maximal cytotoxic concentration (CC50) were determined (Tables 5-8).
(In qPCR the cycle at which signal appears reflects the starting amount.)

The next series concerns DENV-2 strain 16681. Put plainly: Tetravalent RT-qPCR assay Protocol A, serotype 2. It counts as cell-based. The note with it: Dengue virus, DENV2, 72 h; RT-qPCR serotype 2 16681, Vero cells, day 3. As to the method:
as §2, §3, §4, §5, §6

Another series relates to DENV-3 strain H87. Put plainly: Tetravalent RT-qPCR assay Protocol A, serotype 3. The class given is cell-based. Conditions: Dengue virus, DENV3, 72 h; RT-qPCR serotype 3 H87, Vero cells, day 3. Here is the method:
as §2, §3, §4, §5, §6

Another series deals with DENV-4 strain H241. Kind of series: Tetravalent RT-qPCR assay Protocol A, serotype 4 H241. The class given is cell-based. Conditions: Dengue virus, DENV4, Vero, 72 h. Here is the method:
as §2, §3, §4, §5, §6

The subject of series [2] is DENV-4 strain EDEN (SG/06K2270DK1/2005). Kind of series: Tetravalent RT-qPCR assay Protocol A, serotype 4 EDEN. It counts as cell-based. Conditions: Dengue virus, DENV4, 72 h; RT-qPCR serotype 4 EDEN, Vero cells, day 3. As to the method:
as §2, §3, §4, §5, §6

Series [3] can be described thus: in vitro. The class given is cell-based. The note with it: African green monkey. As to the method:
as §2, §3, §6

A short description of series [4]: in vitro. It counts as cell-based. Conditions: African green monkey, CC50. Here is the method: as §1
Where [5] appears, read: Dengue virus, DENV2, Vero, 72 h.

The EC50 is the concentration giving half of the maximal effect. What is called CC50 is the concentration at which the toxic effect on the cells reaches its halfway point. Broadly, the melting point is the temperature, or range, at which the solid turns liquid.

In the case of `COc1cc(NC(C(=O)c2c[nH]c3cc(Cl)ccc23)c2ccc(Cl)cc2OCCO)cc(S(C)(=O)=O)c1` (single isomer, unassigned) [Compound 2A, 1-(6-chloro-1H-indol-3-yl)-2-(4-chloro-2-(2-hydroxyethoxy)phenyl)-2-((3-methoxy-5-(methylsulfonyl)phenyl)amino)ethanone], the EC50 in series [1] came to 0.11 nM; in the series on DENV-1 strain TC974#666 it was 1.6 nM; in the series on DENV-2 strain 16681 it was 0.14 nM; in the series with DENV-3 strain H87, 18 nM; in the series with DENV-4 strain H241, 74 nM; in series [2] it was 1.3 nM. This compound returned a CC50 with Vero cells of 3400 nM. Moreover, the CC50 at 3 days in the series “in vitro [3]” was above 2500 nM.
As to `COc1cc(NC(C(=O)c2c[nH]c3cc(OC)c(C)cc23)c2ccc(Cl)cc2OCCO)cc(S(C)(=O)=O)c1` (single isomer, unassigned) [Compound 6A, 2-(4-chloro-2-(2-hydroxyethoxy)phenyl)-2-((3-methoxy-5-(methylsulfonyl)phenyl)amino)-1-(6-methoxy-5-methyl-1H-indol-3-yl)ethanone], the EC50 in series [1] was 0.13 nM; in the series with DENV-1 strain TC974#666, 1.6 nM; with DENV-2 strain 16681, 0.21 nM; with DENV-3 strain H87 it was 17 nM; in the series on DENV-4 strain H241, 53 nM; in series [2], 1 nM. The compound further displayed a CC50 in “in vitro [4]” of 3800 nM. The compound further had a CC50 at 3 days in “in vitro [3]” of 4900 nM.
Consider `COc1cc(NC(C(=O)c2c[nH]c3c(C)c(Cl)ccc23)c2ccc(Cl)cc2OCCO)cc(S(C)(=O)=O)c1` (racemic) [Compound 5, 2-(4-chloro-2-(2-hydroxyethoxy)phenyl)-1-(6-chloro-7-methyl-1H-indol-3-yl)-2-((3-methoxy-5-(methylsulfonyl)phenyl)amino)ethanone], for which the melting point is 206 °C. Besides, the EC50 in series [1] (setting [5]) worked out at 0.1 nM. In addition, the CC50 in “in vitro [4]” came out at 4300 nM.
In turn, `COc1cc(NC(C(=O)c2c[nH]c3cc(OC)c(OC(F)(F)F)cc23)c2ccc(Cl)cc2OCCO)cc(S(C)(=O)=O)c1` (racemic) [Compound 11, 2-(4-chloro-2-(2-hydroxyethoxy)phenyl)-2-((3-methoxy-5-(methylsulfonyl)phenyl)amino)-1-(6-methoxy-5-(trifluoromethoxy)-1H-indol-3-yl)ethanone] gave a melting point of 212 °C. Also, the concentration giving a half-maximal response (EC50) in series [1] (setting [5]) came to 0.2 nM. The compound also gave a CC50 in “in vitro [4]” above 2500 nM.
On to `COc1cc(NC(C(=O)c2c[nH]c3ccc(C(F)(F)F)cc23)c2ccc(Cl)cc2OCCO)cc(S(C)(=O)=O)c1` (racemic) [Compound 9, 2-(4-chloro-2-(2-hydroxyethoxy)phenyl)-2-((3-methoxy-5-(methylsulfonyl)phenyl)amino)-1-(5-(trifluoromethyl)-1H-indol-3-yl)ethanone], for which the melting point came to 228 °C. Also, the EC50 in series [1] (setting [5]) is 0.1 nM. The CC50 in the series “in vitro [4]” is above 2500 nM.
Compound `COc1cc(NC(C(=O)c2c[nH]c3cc(OC)ccc23)c2ccc(Cl)cc2OCCO)cc(S(C)(=O)=O)c1` (racemic) [Compound 3, 2-(4-chloro-2-(2-hydroxyethoxy)phenyl)-1-(6-methoxy-1H-indol-3-yl)-2-((3-methoxy-5-(methylsulfonyl)phenyl)amino)ethanone] yielded a melting point of 149 °C. Further, the EC50 in series [1] (setting [5]) was determined as 0.54 nM. Besides, the CC50 in the series “in vitro [4]” was 12000 nM.
`COc1cc(NC(C(=O)c2c[nH]c3c(C)c(F)ccc23)c2ccc(Cl)cc2OCCO)cc(S(C)(=O)=O)c1` (racemic) [Compound 4, 2-(4-chloro-2-(2-hydroxyethoxy)phenyl)-1-(6-fluoro-7-methyl-1H-indol-3-yl)-2-((3-methoxy-5-(methylsulfonyl)phenyl)amino)ethanone] came in with a melting point of 173 °C. Moreover, the concentration for a half-maximal effect (EC50) in [1] (setting [5]) was 0.42 nM. In the series “in vitro [4]”, this compound came in with a CC50 of 3700 nM.
Consider `COc1cc(NC(C(=O)c2c[nH]c3c(C)c(F)ccc23)c2ccc(Cl)cc2OCCO)cc(S(C)(=O)=O)c1` (single isomer, unassigned) [Compound 4A, 2-(4-chloro-2-(2-hydroxyethoxy)phenyl)-1-(6-fluoro-7-methyl-1H-indol-3-yl)-2-((3-methoxy-5-(methylsulfonyl)phenyl)amino)ethanone], for which the EC50 in series [1] is 0.13 nM; in the series on DENV-1 strain TC974#666, 1.7 nM; with DENV-2 strain 16681 it was 0.16 nM; in the series with DENV-3 strain H87, 18 nM; in the series on DENV-4 strain H241, 78 nM; in [2], 1.4 nM. In “in vitro [4]”, this compound returned a CC50 of 3000 nM. This compound returned a CC50 at 3 days in “in vitro [3]” above 2500 nM.
